From patent US8686024B2, “Indoline derivatives” (priority 2009, dated 2014)
Entries after “also recorded” stand apart in the source; their conditions may differ. Like-named read-outs stand apart in the source and are kept apart here.

Tests used:
[1] = molecular target: T1, butyrylcholine esterase (BuChE) (Mus musculus, UniProt Q03311); assay: In vitro assay for choline esterase inhibition (Ellman method), butyrylthiocholine substrate, mouse serum; assay type: biochemical; settings: for Ratio AChE/BuChE: selectivity for BuChE inhibition: IC50 (AchE)/IC50 (BuChE)
T1 construct: brain homogenate and serum of mouse were used as choline esterase enzyme sources; from tissue; host or cells: mouse serum
Experimental: (§1) For measurement of esterase activity, brain homogenate and serum of mouse were used as choline esterase enzyme sources, and the method of Ellman et. al (Biochemical pharmacology 7: 88-95 1961) were referred. Compound of each example were diluted in dimethylsulfoxide.
(§2) In detail, acetylthiocholine or butyrylthiocholine as substrates, test compounds, and DNTB [[…]] were added to the mouse brain homogenate or serum, respectively.
(§3) After incubation, thiocholine was produced by enzyme reaction in the mixture, and then, the yellow product was formed by the reaction of thiocholine and DTNB. The activity of acetylcholine esterase (AChE) or butyrylcholine esterase (BuChE) was evaluated by determination of absorbance at 415 nm. […] And the selectivity for BuChE inhibition of each compound was calculated by the ratio: IC50 (AchE)/IC50 (BuChE).

[2] = molecular target: T2, acetylcholine esterase (AChE) (Mus musculus, UniProt P21836); assay: In vitro assay for choline esterase inhibition (Ellman method), acetylthiocholine substrate, mouse brain homogenate; assay type: biochemical
T2 construct: brain homogenate and serum of mouse were used as choline esterase enzyme sources; from tissue; host or cells: mouse brain homogenate
T2 sequence (P21836 32-614): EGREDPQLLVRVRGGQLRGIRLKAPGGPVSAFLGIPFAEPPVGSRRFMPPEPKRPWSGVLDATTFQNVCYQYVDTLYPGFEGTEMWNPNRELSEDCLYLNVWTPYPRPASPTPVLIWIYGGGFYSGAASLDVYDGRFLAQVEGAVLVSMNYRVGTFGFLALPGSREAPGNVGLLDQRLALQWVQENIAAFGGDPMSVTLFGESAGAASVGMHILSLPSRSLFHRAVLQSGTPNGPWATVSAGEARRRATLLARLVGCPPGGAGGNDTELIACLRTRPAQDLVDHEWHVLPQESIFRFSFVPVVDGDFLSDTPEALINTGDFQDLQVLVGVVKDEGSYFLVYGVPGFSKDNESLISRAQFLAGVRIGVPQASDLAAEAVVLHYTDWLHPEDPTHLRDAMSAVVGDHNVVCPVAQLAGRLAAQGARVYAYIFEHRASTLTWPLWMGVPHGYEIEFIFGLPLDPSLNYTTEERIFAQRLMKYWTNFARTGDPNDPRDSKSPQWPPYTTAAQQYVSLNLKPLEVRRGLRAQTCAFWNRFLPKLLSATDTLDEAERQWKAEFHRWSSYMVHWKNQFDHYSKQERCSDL
Experimental: as §1, §2, §3

[3] = mouse serum, butyrylthiocholine, absorbance at 415 nm, read-out: BuChE inhibitory activity IC50
[4] = mouse brain homogenate, acetylthiocholine, absorbance at 415 nm, read-out: AChE inhibitory activity IC50

T1 sequence (Q03311 30-603): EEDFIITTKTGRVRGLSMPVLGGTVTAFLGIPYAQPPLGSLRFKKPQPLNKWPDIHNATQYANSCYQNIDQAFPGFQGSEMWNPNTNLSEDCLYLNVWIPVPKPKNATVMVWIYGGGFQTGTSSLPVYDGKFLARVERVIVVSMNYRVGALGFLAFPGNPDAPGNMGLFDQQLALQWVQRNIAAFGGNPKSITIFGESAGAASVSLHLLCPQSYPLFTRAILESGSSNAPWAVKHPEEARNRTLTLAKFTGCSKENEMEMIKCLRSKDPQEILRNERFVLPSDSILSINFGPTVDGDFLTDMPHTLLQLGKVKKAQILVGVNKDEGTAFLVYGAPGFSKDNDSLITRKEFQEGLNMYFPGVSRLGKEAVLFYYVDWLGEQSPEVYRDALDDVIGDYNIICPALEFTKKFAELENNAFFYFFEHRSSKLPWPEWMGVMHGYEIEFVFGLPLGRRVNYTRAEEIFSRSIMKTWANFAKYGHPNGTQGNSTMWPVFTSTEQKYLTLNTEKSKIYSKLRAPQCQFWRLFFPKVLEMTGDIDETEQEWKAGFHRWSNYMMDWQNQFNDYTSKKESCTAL

Compound	IC50 [1, 3] [nM]	Ratio AChE/BuChE [1]	selectivity to butyrylcholinesterase (BuChE versus AChE inhibitory activity), in words ([1]; summary of Tables 1-3)	IC50 [2, 4] [nM]	IC50 [1] [nM]	IC50 [2] [nM]	butyrylcholinesterase inhibitory activity, in words ([1]; summary of Tables 1-3)
COc1ccccc1CCNC(=O)Oc1ccc2c(c1)CCN2Cc1ccccc1 [Example 117, 1-benzylindolin-5-yl 2-methoxyphenethylcarbamate]	24	330	much higher	7900	–	–	–
O=C(NCCc1ccc(Cl)cc1Cl)Oc1ccc2c(c1)CCN2Cc1ccccc1 [Example 118, 1-benzylindolin-5-yl 2,4-dichlorophenethylcarbamate]	–	>10000	much higher	–	10	> 100000	–
O=C(NCCc1ccncc1)Oc1ccc2c(c1)CCN2Cc1ccccc1 [Example 119, 1-benzylindolin-5-yl 2-(4-pyridyl)ethylcarbamate]	59	240	much higher	14000	–	–	–
O=C(NCCc1cccnc1)Oc1ccc2c(c1)CCN2Cc1ccccc1 [Example 120, 1-benzylindolin-5-yl 2-(3-pyridyl)ethylcarbamate]	24	350	much higher	8500	–	–	–
COC1C=CC(CNC(=O)Oc2ccc3c(c2)CCN3Cc2ccccc2)(OC)O1 (stereo not drawn) [Example 122, 1-benzylindolin-5-yl (2,5-dihydro-2,5-dimethoxyfuran-2-yl)methylcarbamate]	–	>210	–	–	480	> 100000	–
O=C(NCc1ccccc1)Oc1ccc2c(c1)CCN2 [Example 127, indolin-5-yl benzylcarbamate]	610	1.2	–	750	–	–	–
CNC(=O)Oc1ccc2c(c1)CCN2Cc1ccccc1 [Example 131, 1-benzylindolin-5-yl methylcarbamate]	–	6.2	–	–	210	1300	–
CN(C)c1ccc(NC(=O)Oc2ccc3c(c2)CCN3Cc2ccccc2)cc1 [Example 133, 1-benzylindolin-5-yl 4-dimethylaminophenylcarbamate]	–	>2600	much higher	–	39	> 100000	–
CN(C)CCCNC(=O)Oc1ccc2c(c1)CCN2Cc1ccccc1 [Example 137, 1-benzylindolin-5-yl 3-(dimethylamino)propylcarbamate]	–	>560	–	–	180	> 100000	–
O=C(NC1CCN(Cc2ccccc2)CC1)Oc1ccc2c(c1)CCN2Cc1ccccc1 [Example 138, 1-benzylindolin-5-yl 1-benzylpiperidin-4-ylcarbamate]	–	>110	–	–	900	> 100000	–
O=C(NCCC1CCN(Cc2ccccc2)CC1)Oc1ccc2c(c1)CCN2Cc1ccccc1 [Example 139, 1-benzylindolin-5-yl 2-(1-benzylpiperidin-4-yl)ethylcarbamate]	–	63	–	–	43	2700	–
COc1ccc(NC(=O)Oc2ccc3c(c2)CCN3Cc2ccccc2)cc1OC [Example 140, 1-benzylindolin-5-yl 3,4-dimethoxyphenylcarbamate]	–	>910	–	–	110	> 100000	–
CC(C)c1ccc(NC(=O)Oc2ccc3c(c2)C(C)(C)CN3Cc2ccccc2)cc1 [Example 145, 1-benzyl-3,3-dimethylindolin-5-yl-4-isopropylphenylcarbamate]	280	>360	–	> 100000	–	–	–
CC(C)c1ccc(NC(=O)Oc2ccc3c(c2)C(C)CN3Cc2ccccc2)cc1 (stereo not drawn) [Example 146, 1-benzyl-3-methylindolin-5-yl-4-isopropylphenylcarbamate]	180	>560	–	> 100000	–	–	–
CCCCCCNC(=O)Oc1ccc2c(c1)CCN2Cc1ccccn1 [Example 147, 1-(2-pyridylmethyl)indolin-5-yl n-hexylcarbamate]	11	23	–	250	–	–	–
O=C(NCC1CCCCC1)Oc1ccc2c(c1)CCN2Cc1ccccn1 [Example 148, 1-(2-pyridylmethyl)indolin-5-yl cyclohexylmethylcarbamate]	2	600	much higher	1200	–	–	–
O=C(NC1CCCCC1)Oc1ccc2c(c1)CCN2Cc1ccccn1 [Example 149, 1-(2-pyridylmethyl)indolin-5-yl cyclohexylcarbamate]	58	38	–	2200	–	–	–
O=C(NCc1ccccc1)Oc1ccc2c(c1)CCN2Cc1ccccn1 [Example 150, 1-(2-pyridylmethyl)indolin-5-yl benzylcarbamate]	10	11	–	110	–	–	–
CN(C)c1ccc(NC(=O)Oc2ccc3c(c2)CCN3Cc2ccccn2)cc1 [Example 152, 1-(2-pyridylmethyl)indolin-5-yl 4-dimethylaminophenylcarbamate]	57	19	–	1100	–	–	–
CC(C)(C)CNC(=O)Oc1ccc2c(c1)CCN2Cc1ccccc1 [Example 153, 1-benzylindolin-5-yl 2,2-dimethylpropylcarbamate]	–	>1100	much higher	–	91	> 100000	–
O=C(NCC1CCOC1)Oc1ccc2c(c1)CCN2Cc1ccccc1 (stereo not drawn) [Example 155, 1-benzylindolin-5-yl 3-tetrahydrofurylmethylcarbamate]	15	3800	much higher	57000	–	–	–
CN(C)CC(C)(C)CNC(=O)Oc1ccc2c(c1)CCN2Cc1ccccc1 [Example 156, 1-benzylindolin-5-yl 3-dimethylamino-2,2-dimethylpropylcarbamate]	–	>200	–	–	510	> 100000	–
CC(=O)NCCC1CN(Cc2ccccc2)c2ccc(OC(=O)Nc3ccc(C(C)C)cc3)cc21 (stereo not drawn) [Example 160, 3-(2-acetamidethyl)-1-benzylindolin-5-yl-4-isopropylphenylcarbamate]	–	>180	–	–	550	> 100000	–
CCCN(CCC)C(=O)CC1CN(Cc2ccccc2)c2ccc(OC(=O)Nc3ccc(C(C)C)cc3)cc21 (stereo not drawn) [Example 161, 1-benzyl-3-(di-n-propylaminocarbonylmethyl)indolin-5-yl 4-isopropylphenylcarbamate]	–	>670	–	–	150	> 100000	–
CCCN(CCC)C(=O)CC1c2cc(OC(=O)Nc3ccc(C(C)C)cc3)ccc2N(Cc2ccccc2)C1C (stereo not drawn) [Example 162, 1-benzyl-3-(di-n-propylaminocarbonylmethyl)-2-methylindolin-5-yl 4-isopropyl phenylcarbamate]	–	>240	–	–	410	> 100000	–
CN(CC1CCCCC1)C(=O)Oc1ccc2c(c1)CCN2Cc1ccccc1 [Example 214, O-(1-benzylindolin-5-yl)-N-(cyclohexylmethyl)-N-methylcarbamate]	–	>2000	much higher	–	51	> 100000	–
CN(CC1CCCCC1)C(=O)Oc1ccc2c(c1)C(C)(C)CN2Cc1ccccc1 [Example 216, O-(1-benzyl-3,3-dimethylindolin-5-yl)-N-(cyclohexylmethyl)-N-methylcarbamate]	–	23000	much higher	–	2.4	54000	–
CN(CC1CCOCC1)C(=O)Oc1ccc2c(c1)C(C)(C)CN2Cc1ccccc1 [Example 217, O-(1-benzyl-3,3-dimethylindolin-5-yl)-N-methyl-N-(4-tetrahydropyranylmethyl)carbamate]	–	260000	much higher; also recorded: highest selectivity to butyrylcholinesterase	–	0.36	93000	highest butyrylcholinesterase inhibitory activity
